Results from the supplement of paper PMC11208160.

Assay: recombinant barcode read abundance after kanamycin selection (control-corrected) (log10(CPM+1)); higher = more efficient recombination; sequences stand for … in AGTGCAGAGAAAATCGGCCAGTTTTCTCTGCCTGCAGTCCGCATGCCGT…AGATTTATGCAGCGGACTGCCTTTCTCCCAAAGTGATAAACCGGACAGTATCATGGACCGGTTTTCCCGGTAATCCGTATTTGCAAGGTTGGTTTCACT; site = the 11-nt target
Method in brief: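 Two replicates per condition were plated: chloramphenicol/ampicillin LB agar for the control, and chloramphenicol/ampicillin/kanamycin with 0.1 mM IPTG for selection. The pooled E. coli screen behind them paired targets with IS621 bridge RNA target-binding loops. Recombination efficiency is expressed from averaged, control-corrected barcode counts per million at recombinant junctions, as log10(CPM+1).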
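Also: IS621 recombinase and bridge RNA in Escherichia coli cells.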

| Sequence | recombinant barcode read abundance (log10) |
| --- | --- |
| ACAAAACCTTGGGTTCTAACCTGTTGCCT (site ACAAACCCTAG) | 0.461 |
| CAGCTACCTTGGGTTCTAACCTGTTGCCT (site CAGCTACCTAG) | 1.73 |
| CTAAGCTCTTGGGTTCTAACCTGTTGCTT (site CTAAGCTCTAA) | 0.0662 |
| CGGGCCTCTTGGGTTCTAACCTGTTGCTG (site CGGGCCTCTGA) | 0.217 |
| CTTCGGGCTTGGGTTCTAACCTGTTGCAA (site CTTCGGACTTT) | 0.217 |
| AAGGCGCCTTGGGTTCTAACCTGTTGCCT (site AGGGCGCCTAG) | 0.128 |
| GAGCTACCTTGGGTTCTAACCTGTTGCCT (site GAGCTACCTAG) | 1.46 |
| GGGGCGTCTTGGGTTCTAACCTGTTGCCT (site GGGGCGTCTAG) | 1.55 |
| GCGTGGACTTGGGTTCTAACCTGTTGCCT (site GCGTCTACTAG) | 0.235 |
| TAATGATCTTGGGTTCTAACCTGTTGCCT (site TAGTGATCTAG) | 0.15 |
| ACCAACACTTGGGTTCTAACCTGTTGCTT (site TATTTAGCTCC) | 0.259 |
| CACAACACTTGGGTTCTAACCTGTTGCCT (site CACACCACTAG) | 0.287 |
| AGAACAACTTGGGTTCTAACCTGTTGCCT (site AGAACAACTAG) | 0.388 |
| AAGGTGTCTTGGGTTCTAACCTGTTGCCT (site AATGTGTCTAG) | 0.45 |
| TCCGCGACTTGGGTTCTAACCTGTTGCCT (site TCGGCGACTAG) | 0.453 |
| TAGGCTCCTTGGGTTCTAACCTGTTGCTT (site TACGGTCCTAA) | 0.0632 |
| CTACGGTCTTGGGTTCTAACCTGTTGCAC (site CTACGTTCTGT) | 0.0783 |
| GGTTGCCCTTGGGTTCTAACCTGTTGCGG (site GGTTGGCCTCC) | 0.0682 |
| CATTCACCTTGGGTTCTAACCTGTTGCCT (site AATTCACCTAG) | 0.153 |
| CGCTGACCTTGGGTTCTAACCTGTTGCCT (site GCAACCTCTTA) | 0.11 |
| ACCTGCCCTTGGGTTCTAACCTGTTGCCT (site ACCTGACCTAG) | 0.154 |
| TAGCGGCCTTGGGTTCTAACCTGTTGCGG (site TAGCGGCCTCC) | 2.23 |

| Sequence | recombinant barcode read abundance (log10) |
| --- | --- |
| GGACGCGCTTGGGTTCTAACCTGTTGCGG (site GGACGCGCTCC) | 2.43 |
| GCGCGGCCTTGGGTTCTAACCTGTTGCCT (site CCGCGGCCTAG) | 0.0374 |
| TCCCATGCTTGGGTTCTAACCTGTTGCCT (site TCCCATGCTAG) | 1.17 |
| TAATCGTCTTGGGTTCTAACCTGTTGCCT (site TAATCGCCTAG) | 0.0275 |
| TCAGAAGCTTGGGTTCTAACCTGTTGCCG (site TCAGAAGCTCG) | 0.689 |
| CTACGATCTTGGGTTCTAACCTGTTGCAC (site CTACGCTCTGT) | 0.162 |
| GGCTACCCTTGGGTTCTAACCTGTTGCAA (site CTGGTATCTAA) | 0.148 |
| AGGTCTACTTGGGTTCTAACCTGTTGCCA (site AGGTCTACTTG) | 0.6 |
| TAGTCCTCTTGGGTTCTAACCTGTTGCTC (site TAGTCCTCTGA) | 0.935 |
| ACCTGACCTTGGGTTCTAACCTGTTGCGG (site CGGACTGCTAG) | 0.12 |
| AAGAGCACTTGGGTTCTAACCTGTTGCCT (site TAGAGCACTAG) | 0.315 |
| GAAAGGGCTTGGGTTCTAACCTGTTGCCT (site GAAATGGCTAG) | 0.0705 |
| GACCGTGCTTGGGTTCTAACCTGTTGCCT (site GACCGGGCTAG) | 0.268 |
| CGGAGCTCTTGGGTTCTAACCTGTTGCCT (site CGCAGCTCTAG) | 0.293 |
| CTAGTGTCTTGGGTTCTAACCTGTTGCTA (site GTAGTGTCTTA) | 0.0109 |
| CGGCTCCCTTGGGTTCTAACCTGTTGCTT (site GACACAACTTG) | 0.147 |
| TACCAGTCTTGGGTTCTAACCTGTTGCTT (site TACCCGTCTAA) | 0.0102 |
| GACTGGCCTTGGGTTCTAACCTGTTGCTT (site GACTGGCCTAA) | 0.389 |
| TACCTACCTTGGGTTCTAACCTGTTGCGA (site TACCTACCTTC) | 1.92 |
| GTTTATACTTGGGTTCTAACCTGTTGCGT (site GTTTATACTAC) | 0.749 |
| TACCCGCCTTGGGTTCTAACCTGTTGCTA (site TACCCTACTTA) | 0.066 |
| AACAGACCTTGGGTTCTAACCTGTTGCCT (site AACAGACCTAG) | 1.62 |

| Sequence | recombinant barcode read abundance (log10) |
| --- | --- |
| GCTCCTACTTGGGTTCTAACCTGTTGCCT (site GGTCCTACTAG) | 0.48 |
| TAACTCTCTTGGGTTCTAACCTGTTGCCT (site TCACTCTCTAG) | 0.0372 |
| GAAATTCCTTGGGTTCTAACCTGTTGCCT (site GAAACTCCTAG) | 0.266 |
| GGTTGCCCTTGGGTTCTAACCTGTTGCGG (site GGTTGACCTCC) | 0.295 |
| GGTCGGACTTGGGTTCTAACCTGTTGCGT (site GGTCGGACTAC) | 2.17 |
| CTAAGCGCTTGGGTTCTAACCTGTTGCCA (site CTAAGAGCTTG) | 0.145 |
| TCAGCCTCTTGGGTTCTAACCTGTTGCCT (site TCAGCCTCTAG) | 1.72 |
| CTCTAGGCTTGGGTTCTAACCTGTTGCCT (site CTCTAGGCTAG) | 0.0135 |
| TGAGGCACTTGGGTTCTAACCTGTTGCCT (site TGAGGCACTAG) | 0.474 |
| ACCCTTACTTGGGTTCTAACCTGTTGCCT (site ACCCTTACTAG) | 1.07 |
| TAGCATGCTTGGGTTCTAACCTGTTGCAC (site TAGCATGCTAT) | 0.677 |
| GTGGAGGCTTGGGTTCTAACCTGTTGCCT (site ATGGCGGCTAG) | 0.371 |
| GGACCCTCTTGGGTTCTAACCTGTTGCCT (site GGACCCTCTAG) | 1.96 |
| GGGCCGGCTTGGGTTCTAACCTGTTGCCG (site AATGATTCTAC) | 0.292 |
| GTTTGTTCTTGGGTTCTAACCTGTTGCCT (site GTTTGGTCTAG) | 0.237 |
| ATCCACCCTTGGGTTCTAACCTGTTGCCT (site ATCCAGCCTAG) | 0.207 |
| CTAAGCTCTTGGGTTCTAACCTGTTGCTT (site CTAAGCTCTGA) | 0.0802 |
| ATCCATCCTTGGGTTCTAACCTGTTGCCT (site ATCCAACCTAG) | 0.00851 |
| ATCGGAGCTTGGGTTCTAACCTGTTGCGG (site ATCGGAGCTCG) | 0.424 |
| GACATATCTTGGGTTCTAACCTGTTGCTG (site GACATATCTCA) | 0.403 |
| CTGATCACTTGGGTTCTAACCTGTTGCCT (site CTGATGACTAG) | 0.0708 |
| AGTCCACCTTGGGTTCTAACCTGTTGCCT (site TGTCCACCTAG) | 0.49 |

| Sequence | recombinant barcode read abundance (log10) |
| --- | --- |
| CTGTCTCCTTGGGTTCTAACCTGTTGCCT (site TTGTCTCCTAG) | 0.3 |
| GAGGGCCCTTGGGTTCTAACCTGTTGCCG (site GAGGGCCCTCT) | 0.759 |
| GGCCGTCCTTGGGTTCTAACCTGTTGCAG (site GGCCGTCCTCT) | 0.118 |
| AGGTCTACTTGGGTTCTAACCTGTTGCCA (site TTAGACCCTCT) | 0.1 |
| CAAGACCCTTGGGTTCTAACCTGTTGCCT (site CATGACCCTAG) | 1.17 |
| CTGGTGTCTTGGGTTCTAACCTGTTGCCT (site CTGGGGTCTAG) | 0.0939 |
| TCCCAGCCTTGGGTTCTAACCTGTTGCTG (site TCCCAGCCTCA) | 0.0849 |
| GCTGGGTCTTGGGTTCTAACCTGTTGCCT (site GATGGGTCTAG) | 0.0435 |
| TAAGGTCCTTGGGTTCTAACCTGTTGCTA (site GGAGGTCCTTA) | 0.0326 |
| CTCTAGGCTTGGGTTCTAACCTGTTGCCT (site CTCTTGGCTAG) | 0.13 |
| TAGTATGCTTGGGTTCTAACCTGTTGCTA (site TAGTATGCTTA) | 1.39 |
| TCTCAGTCTTGGGTTCTAACCTGTTGCGG (site TCCCAGTCTCA) | 0.0631 |
| TGATTTCCTTGGGTTCTAACCTGTTGCCT (site AGATTGCCTAG) | 0 |
| GTGGAGTCTTGGGTTCTAACCTGTTGCGT (site GTGGAGTCTAC) | 1.49 |
| TATAAGACTTGGGTTCTAACCTGTTGCAC (site TATAAGACTGT) | 0.755 |
| TATTCTACTTGGGTTCTAACCTGTTGCGT (site TATTCTACTTC) | 0.0549 |
| CTTCGGACTTGGGTTCTAACCTGTTGCTT (site CTTCGGACTAA) | 0.769 |
| CTATTTCCTTGGGTTCTAACCTGTTGCCT (site CGGTTTCCTAG) | 0.032 |
| CACTTCCCTTGGGTTCTAACCTGTTGCGA (site AGTGAAGCTGT) | 0.222 |
| TGGGACTCTTGGGTTCTAACCTGTTGCCT (site TGAGACTCTAG) | 2.44 |
